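All cell lines were grown in 96-well plates and treated with compound for 48 hours. At the GI50, growth is halved.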 Active and inactive are the calls of the source. Cut-off read from the data, not from the text of the source: active = GI50 up to about 1.1 µM and inactive = higher.
Columns and labels:
Test in all cases: growth of human tumour cells (NCI), 48 h
[1] = tested on: NCI-H460
[2] = tested on: SN12C
[3] = tested on: SK-OV-3
[4] = tested on: M14
[5] = tested on: NCI-H522
[6] = tested on: OVCAR-5
[7] = tested on: UACC-257
[8] = tested on: DMS-114
[9] = tested on: HCT-15
[10] = tested on: 786-0
[11] = tested on: SNB-75
[12] = tested on: XF498
[13] = tested on: SF-295
[14] = tested on: NCI-H226
[15] = tested on: Malme-3M
[16] = tested on: KM-20L2
[17] = tested on: SF-539
[18] = tested on: K562
[19] = tested on: CAKI-1
[20] = tested on: RXF 393
[21] = tested on: A549
[22] = tested on: UACC-62
[23] = tested on: DLD-1
[24] = tested on: NCI-H23
[25] = tested on: M19-MEL
[26] = tested on: RXF 631
[27] = tested on: HL-60
[28] = tested on: HCC 2998
[29] = tested on: DMS-273
[30] = tested on: OVCAR-8
[31] = tested on: IGROV-1
[32] = tested on: MOLT-4
[33] = tested on: ACHN
[34] = tested on: KM12
[35] = tested on: RPMI-8226
[36] = tested on: HOP-18
[37] = tested on: UO-31
[38] = tested on: OVCAR-4
[39] = tested on: HT-29
[40] = tested on: A498
[41] = tested on: SW-620
[42] = tested on: EKVX
[43] = tested on: LOX IMVI
[44] = tested on: SK-MEL-28
[45] = tested on: OVCAR-3
[46] = tested on: LXFL 529
[47] = tested on: SF-268
[48] = tested on: SK-MEL-5
[49] = tested on: HOP-62
[50] = tested on: TK-10
[51] = tested on: CCRF-CEM
[52] = tested on: COLO 205
[53] = tested on: SNB-19
[54] = tested on: U-251
[55] = tested on: SK-MEL-2

Question: What does the source list for C=CCNC1=NC(=O)C(CC(=O)Nc2cccc(Cl)c2)S1 (stereo not given)?
Answer: GI50 [1]: > 100 µM (inactive); GI50 [2]: > 100 µM (inactive); GI50 [3]: > 100 µM (inactive); GI50 [4]: > 100 µM (inactive); GI50 [5]: > 100 µM (inactive); GI50 [6]: > 100 µM (inactive); GI50 [7]: > 100 µM (inactive); GI50 [8]: > 100 µM (inactive); GI50 [9]: > 100 µM; GI50 [10]: > 100 µM (inactive); GI50 [11]: > 100 µM (inactive); GI50 [12]: > 100 µM (inactive); GI50 [13]: > 100 µM (inactive); GI50 [14]: > 100 µM (inactive); GI50 [15]: > 100 µM (inactive); GI50 [16]: > 100 µM (inactive); GI50 [17]: > 100 µM (inactive); GI50 [18]: > 100 µM (inactive); GI50 [19]: > 100 µM (inactive); GI50 [20]: > 100 µM (inactive); GI50 [21]: > 100 µM (inactive); GI50 [22]: > 100 µM (inactive); GI50 [23]: > 100 µM (inactive); GI50 [24]: > 100 µM (inactive); GI50 [25]: > 100 µM (inactive); GI50 [26]: > 100 µM (inactive); GI50 [27]: > 100 µM (inactive); GI50 [28]: > 100 µM (inactive); GI50 [29]: > 100 µM (inactive); GI50 [30]: > 100 µM (inactive); GI50 [31]: > 100 µM (inactive); GI50 [32]: > 100 µM (inactive); GI50 [33]: > 100 µM (inactive); GI50 [34]: > 100 µM (inactive); GI50 [35]: > 100 µM (inactive); GI50 [36]: > 100 µM (inactive); GI50 [37]: > 100 µM (inactive); GI50 [38]: > 100 µM (inactive); GI50 [39]: > 100 µM (inactive); GI50 [40]: > 100 µM (inactive); GI50 [41]: > 100 µM (inactive); GI50 [42]: > 100 µM (inactive); GI50 [43]: > 100 µM (inactive); GI50 [44]: > 100 µM (inactive); GI50 [45]: > 100 µM (inactive); GI50 [46]: > 100 µM (inactive); GI50 [47]: > 100 µM (inactive); GI50 [48]: > 100 µM (inactive); GI50 [49]: > 100 µM (inactive); GI50 [50]: > 100 µM (inactive); GI50 [51]: > 100 µM (inactive); GI50 [52]: > 100 µM (inactive); GI50 [53]: > 100 µM (inactive); GI50 [54]: > 100 µM (inactive); GI50 [55]: > 100 µM (inactive)
